# Laboratory results from patent US9732091B2, “Tryptophanol-derived oxazoloisoindolinones: small-molecule P53 activators” (UNIVERSIDADE DO PORTO, priority 2013, dated 2017).
# How the values were obtained:
# [1] = system: MDA-MB-231 cells (mutant p53 R280K); assay: sensitization to etoposide and doxorubicin, SRB assay, MDA-MB-231; assay type: cell-based, human
# Protocol: FIG. 9 illustrates that SLMP53-1 sensitizes breast cancer MDA-MB-231 cells to the effects of etoposide and doxorubicin. The MDA-MB-231 tumor cells (with the mutant p53 R280K) were treated for 48 hours with increasing concentrations of etoposide ([…] to 6.00 μM) or doxorubicin (187.5 to 750.0 nM) in the presence of a very low concentration (between GI5 to GI10; 4 μM) of SLMP53-1 or with DMSO only. Effect of compounds on cell growth was analyzed following 48 hours incubation, using the sulforhodamine B (SRB) assay. Results are mean±SEM of three to four independent experiments.
# It was also investigated if SLMP53-1 increased the sensitivity of MDA-MB-231 cells to the effects of various concentrations of etoposide (0.38 to 6.00 μM) and doxorubicin (187.5 to 750.0 nM). For that, a low concentration of SLMP53-1 (approximately the GI5 to GI10 concentration; 4 μM; without significant anti-proliferative effects on tumor cell lines) was used. […] Particularly, for 0.38 μM etoposide (for which an anti-proliferative effect is not observed), a 25% decrease of tumor cell growth was obtained in the presence of 4 μM of SLMP53-1.
# HCT116 p53^+/+ cells [2] = assay: cell cycle analysis by flow cytometry (propidium iodide), HCT116 p53^+/+; assay type: cell-based, human; details: double GI50, 24 hours
# Protocol: FIG. 3 illustrates the effect of SLMP53-1 on cell cycle progression of HCT116 p53^+/+ cells. Cell cycle phases were analyzed by flow cytometry using propidium iodide and quantified using ModFit LT software (Verity Software House Inc., Topsham, USA). Effect of compounds (double GI50) was analyzed after 24 hours treatment. Histograms represent one of two independent experiments; quantification of cell cycle phases represents the mean±S.E.M. of two independent experiments.
# mutant p53 R273H = molecular target: T1, mutant p53 R273H (Homo sapiens, UniProt P04637, R273H); assay: reactivation of mutant p53 in yeast (growth, CFU), R273H; assay type: cell-based; details: 10 μM; yeast expressing R273H; 44 hours
# T1 construct: expressed in transfected cells
# Protocol: (§1) FIG. 6 illustrates that SLMP53-1 reactivates mutant p53s R273H, R175H and R280K in yeast. Yeast cells expressing R273H, R280K, Y220C or R175H were incubated in selective medium with 10 μM of SLMP53-1, 10 μM of CP-31398 (for R273H), 10 μM of PRIMA-1 (for R175H and R280K), 50 μM of PhiKan 083 (for Y220C) or DMSO only, for 44 hours. CP-31398, PRIMA-1 and PhiKan 083 were used as positive controls. Results are plotted setting as 100% growth the number of CFU obtained in the presence of DMSO only.
# (§2) It is also shown that SLMP53-1 can reactivate some mutant p53 forms, particularly R273H, R280K and R175H (FIG. 6).
# HCT116 p53^−/− = assay: SRB growth inhibition assay in HCT116 p53^−/− colon carcinoma cells; assay type: cell-based, human; details: Homo sapiens, HCT-116, 48 hours incubation, mean±S.E.M.
# Protocol: (§3) Tumor cells were plated at 5.0×10^3 cells/well in 96-well plates and incubated for 24 hours. Cells were then exposed to serial dilutions of SLMP53-1, CP-31398 or PRIMA-1 (from 1.85 to 150 μM). The effect of the compounds was analyzed following 48 hours incubation, using the sulforhodamine B (SRB) assay. The solvent DMSO corresponding to the maximum concentration used in these assays (0.025%) was included as control. The GI50 value, the concentration of compound that causes 50% growth inhibition, was calculated for the tested compounds. Results are the mean±S.E.M. of three independent experiments.
# mutant p53 R280K = molecular target: T2, mutant p53 R280K (Homo sapiens, UniProt P04637, R280K); assay: reactivation of mutant p53 in yeast (growth, CFU), R280K; assay type: cell-based; details: 10 μM; yeast expressing R280K; 44 hours
# T2 construct: expressed in transfected cells
# Protocol: as §1, §2
# HCT116 p53^+/+ cells [3] = assay: sensitization to etoposide and doxorubicin, SRB assay, HCT116 p53^+/+; assay type: cell-based, human
# Protocol: FIG. 5 illustrates that SLMP53-1 sensitizes colon carcinoma tumor cells with wt p53 (HCT116 p53^+/+) to the effects of etoposide and doxorubicin. HCT116 p53^+/+ cells were treated for 48 hours with increasing concentrations of etoposide (0.38 to 3.00 μM) or doxorubicin (9.38 to 75.0 nM) in the presence of a very low concentration (between GI5 to GI10; 4 μM) of SLMP53-1 or DMSO only. The effect of the compounds on cell growth was analyzed following 48 hours incubation, using the sulforhodamine B (SRB) assay. Results are mean±SEM of three to four independent experiments.
# It was also investigated if SLMP53-1 increased the sensitivity of HCT116 p53^+/+ cells to the effects of various concentrations of the conventional chemotherapeutic drugs, etoposide (0.38 to 3.00 μM) and doxorubicin (9.38 to 75 nM). For that, a low concentration of SLMP53-1 (approximately the GI5 to GI10 concentration; 4 μM; without significant anti-proliferative effect on tumor cells) was used.
# [4] = apparent permeability coefficients; assay type: in vitro ADME
# HCT116 p53^+/+ = assay: SRB growth inhibition assay in HCT116 p53^+/+ colon carcinoma cells; assay type: cell-based, human
# Protocol: as §3
# [5] = system: MDA-MB-231 breast tumor cells; assay: Western blot of p53 and p53-target proteins, PARP cleavage, MDA-MB-231; assay type: cell-based, human; details: 16.6 μM (GI50), 24/48 hours
# From the text: FIG. 7 illustrates that SLMP53-1 increases the levels of p53 and of proteins encoded by p53-target genes in MDA-MB-231 breast tumor cells.
# MDA-MB-231 (p53R280K) = assay: SRB growth inhibition assay in MDA-MB-231 breast cancer cells; assay type: cell-based, human; details: Homo sapiens, 48 hours incubation, mean±S.E.M.
# Protocol: as §3, with “7.5×10^3” for “5.0×10^3”, “incubation period,” for “incubation,”, “value, which is” for “value,”
# [6] = HCT116 p53^+/+ vs HCT116 p53^−/−
smiles,measurement,setting,value
C[C@]12OC[C@H](Cc3c[nH]c4ccccc34)N1C(=O)c1ccccc12 [SLMP53-1],decrease of tumor cell growth,[1]; 0.38 μM etoposide in the presence of 4 μM of SLMP53-1,25%
same,etoposide/doxorubicin-induced growth inhibition,"[1]; 4 μM SLMP53-1, three concentrations tested, 48 hours",increased
same,cell cycle progression,HCT116 p53^+/+ cells [2],G0/G1-phase cell arrest
same,yeast growth inhibition,mutant p53 R273H,significant growth inhibition
same,GI50,HCT116 p53^−/−,34 ± 3.5 µM
same,yeast growth inhibition,mutant p53 R280K,significant growth inhibition
same,decrease of tumor cell growth,"HCT116 p53^+/+ cells [3]; 9.38 nM doxorubicin in the presence of 4 μM of SLMP53-1, HCT116 p53^+/+",15%
same,etoposide/doxorubicin-induced growth inhibition,"HCT116 p53^+/+ cells [3]; 4 μM SLMP53-1, etoposide 0.75 and 3.00 μM, doxorubicin 9.38, 37.5 and 75 nM, 48 hours",increased
same,apparent permeability coefficients,[4],favorable
same,GI50 in HCT116 p53^+/+ cells lower than in HCT116 p53^−/− cells,HCT116 p53^+/+; [6],2 fold
same,p53 dependence of anti-proliferative effect,HCT116 p53^+/+; [6],p53-dependent anti-proliferative effect
same,GI50,"HCT116 p53^+/+; Homo sapiens, HCT-116, HCT116 p53^+/+, 48 hours incubation, SRB, mean±S.E.M.",15.5 ± 1.6 µM
same,PARP cleavage,[5],lead to PARP cleavage
same,"levels of p53 and of BAX, PUMA and p21",[5],increased
same,GI50,MDA-MB-231 (p53R280K),16.6 ± 4.2 µM
